The results in this text go back to ChEMBL document CHEMBL5576079, “Discovery of a potent orally available pyrazolopyridone derivative as a novel selective bromodomain and extra-terminal domain (BET)-first bromodomain (BD1) inhibitor” (Bioorg Med Chem Lett, 2024).

The subject of one series is Monocyte. Nature of the series: Inhibition of LPS-induced MCP-1 production in mouse Monocyte.
Series [1] concerns Mus musculus. Kind of series: Anti-inflammatory activity in endotoxemia mouse model assessed as suppression of LPS-induced serum MCP-1 level at 10 mg/kg, po preincubated for 30 mins followed by LPS stimulation and measured after 90 mins. The series is classed as functional, organism-based. The settings on record: time 120.0 min.
In series [2] the test system is Mus musculus. Nature of the series: Anti-inflammatory activity in endotoxemia mouse model assessed as suppression of LPS-induced serum IL-6 level at 10 mg/kg, po preincubated for 30 mins followed by LPS stimulation and measured after 90 mins. The series is classed as functional, organism-based. Conditions: time 120.0 min.
Series [3] is described as follows: Drug concentration in LPS induced mouse plasma at 10 mg/kg measured after 2 hrs. The class given is ADME, organism-based.
A short description of series [4]: Drug concentration in LPS induced mouse plasma at 100 mg/kg measured after 2 hrs. The series is classed as ADME, organism-based.

Calls of active or inactive are those of the source. The rule behind the calls is not given here.

Regarding `Cc1sc2c(c1C)C(c1ccc(Cl)cc1)=N[C@@H](CC(=O)OC(C)(C)C)c1nnc(C)n1-2`, the IC50 (in general, the point on the concentration scale where inhibition reaches its midpoint) in the series on Monocyte was found to be 2 nM.
As to `Cc1csc(-c2cn(C)c(=O)c3cn(CC4CC(C(=O)NC5CCCCC5)CCN(C)C4)nc23)n1` (stereo unspecified), the IC50 in the series on Monocyte turned out to be 1 nM. For the same molecule, the outcome in the series on Mus musculus [1] and in the series on Mus musculus [2] was Active. Moreover, the figures for the concentration at 2 h in series [3] and in series [4] were 39.1 ng/mL and 707 ng/mL, respectively.
